Laboratory results from US5962502A, “Polyamidic acid derivatives with antigastrin activity, a method for their preparation, and their pharmaceutical use” (priority 1993, dated 1999).

What was measured:
mouse = assay: Black and White Box test in the mouse (anxiolytic activity); assay type: in vivo; conditions: for LIGHT TIME TOTAL TIME / LIGHT-DARK MOVEMENTS / MOV. DARK % TOTAL MOV. / TOTAL MOVEMENTS: 5 minutes; for anxiolytic activity, result in words: Black and White Box test, IP
Protocol: It has recently been postulated that the central CCK-B receptor has an important role in anxiety. This is in accordance with studies also carried out in man, which have shown that the central CCK-B mechanisms have an important function in the mediation of panic attacks [Bradwejn, H. et al; J. Psychopharmacology 6 (1992), 345]. […] This experimental model, which was carried out according to Costall et al [Pharm. Biochem. Behav. 32 (1989), 777-785], used a box with dimensions of 45×21×21(h) cm divided into 2 compartments which communicated with one another through a 13×5 cm hole. The smaller compartment (1/3 of the total area) had black walls, whereas the larger had transparent walls and was illuminated by a lamp which was placed 20 cm above the box and supplied light at 20W. Under the floor there was an activity meter which recorded the movements performed by the animal in the individual compartments. The experiment was started by placing the animal in the centre of the illuminated box; as well as movements, the time which the animal spent in the dark and in the light areas and the number of movements between the 2 compartments were then recorded for 5 minutes. A control animal generally preferred to stay in the dark compartment where it felt better protected from an unusual environmental situation which put it in a state of anxiety. In this experimental model, a compound having anxiolytic activity decreased the % of movements into the dark in comparison with the total movements, increased the movements between the two light-dark compartments, and increased the % of time spent in the light in comparison with the total time.
The results obtained are shown in Table 7, where the activities obtained with compounds 9, 21 and 51 are given, tested in comparison with diazepam.

central CCK-B receptor = target: T1, central CCK-B receptor (Cavia porcellus, UniProt H0VZC5); assay: Inhibition of the binding of [3-H][N-methyl-N-leucine]CCK-8 to guinea-pig cortical membranes; conditions: for IC50: guinea-pig cortical membranes, 150 minutes at 25° C.
T1 construct: Cerebral cortices of male white guinea-pigs were thus used; from tissue; host or cells: cerebral cortex membranes of male white guinea-pigs
T1 sequence (H0VZC5 1-426): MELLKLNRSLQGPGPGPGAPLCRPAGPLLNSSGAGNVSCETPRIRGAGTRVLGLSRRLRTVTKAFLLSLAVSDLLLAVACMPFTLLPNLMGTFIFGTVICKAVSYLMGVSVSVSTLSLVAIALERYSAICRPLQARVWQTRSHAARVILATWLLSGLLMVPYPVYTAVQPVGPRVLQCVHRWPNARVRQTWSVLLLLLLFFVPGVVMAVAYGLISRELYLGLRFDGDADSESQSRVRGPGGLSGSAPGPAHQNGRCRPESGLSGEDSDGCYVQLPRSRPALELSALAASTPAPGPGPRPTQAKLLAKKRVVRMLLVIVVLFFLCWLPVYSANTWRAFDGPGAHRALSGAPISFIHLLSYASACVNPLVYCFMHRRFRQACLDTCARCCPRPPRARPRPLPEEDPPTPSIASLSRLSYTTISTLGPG
Protocol: The ability of the compounds of the invention to interact with the central CCK-B receptor was evaluated with the use of non-sulphated [3-H] […] 225 (3) (1990), 1278-1286].
Cerebral cortices of male white guinea-pigs were thus used, according to the method mentioned above, so as to obtain a membrane content corresponding to about 300 mcg of proteins/ml. The membranes were incubated together with the radioactive tracer and the compounds under test for 150 minutes at 25° C. After the supernatant had been discarded, the radioactivity associated with the pellet was determined with a liquid scintillator. The specific binding was determined as the difference between the binding in the absence and in the presence of 5.10^-6 M CCK-8.

CN1C(=O)CN=C(c2ccccc2)c2cc(Cl)ccc21 [DIAZEPAM, diazepam, reference compound]
EFF. % VS CONTROL (LIGHT TIME TOTAL TIME) (mouse; 1.0 mg/kg IP): 19% | EFF. % VS CONTROL (LIGHT-DARK MOVEMENTS) (mouse; 1.0 mg/kg IP): 37% | EFF. % VS CONTROL (MOV. DARK % TOTAL MOV.) (mouse; 1.0 mg/kg IP): -5% | LIGHT TIME TOTAL TIME (mouse; 1.0 mg/kg IP): 29.3% | LIGHT-DARK MOVEMENTS (mouse; 1.0 mg/kg IP): 19.9 | MOV. DARK % TOTAL MOV. (mouse; 1.0 mg/kg IP): 53% | TOTAL MOVEMENTS (mouse; 1.0 mg/kg IP): 508 | EFF. % VS CONTROL (LIGHT TIME TOTAL TIME) (mouse; 3.0 mg/kg IP): 37% | EFF. % VS CONTROL (LIGHT-DARK MOVEMENTS) (mouse; 3.0 mg/kg IP): 54% | EFF. % VS CONTROL (MOV. DARK % TOTAL MOV.) (mouse; 3.0 mg/kg IP): -7% | LIGHT TIME TOTAL TIME (mouse; 3.0 mg/kg IP): 33.6% | LIGHT-DARK MOVEMENTS (mouse; 3.0 mg/kg IP): 22.3 | MOV. DARK % TOTAL MOV. (mouse; 3.0 mg/kg IP): 52% | TOTAL MOVEMENTS (mouse; 3.0 mg/kg IP): 539 | effect on the total movements parameter, result in words (mouse; 1 and 3 mg/kg): significantly increased | anxiolytic activity, result in words (mouse): active for all the parameters tested

O=C(CC[C@@H](NC(=O)c1cc(Cl)cc(Cl)c1)C(=O)N1CCC2(CCCC2)CC1)Nc1cccc(C(=O)O)c1 [Compound 49]
IC50 (central CCK-B receptor): 1390 nM

CN(C(=O)CC[C@@H](NC(=O)c1cc(Cl)cc(Cl)c1)C(=O)N1CCC2(CCCC2)CC1)c1ccc(C(=O)O)cc1 [Compound 48]
IC50 (central CCK-B receptor): 440 nM

CN(C(=O)c1cc(Cl)cc(Cl)c1)[C@H](CCC(=O)N[C@H](Cc1c[nH]c2ccccc12)C(=O)O)C(=O)N1CCC2(CCCC2)CC1 [Compound 46]
IC50 (central CCK-B receptor): 120 nM

CCCCCN(CCCCC)C(=O)[C@@H](CCC(=O)N[C@H](Cc1c[nH]c2ccccc12)C(=O)O)NC(=O)c1ccc2ccccc2c1 [Compound 42]
IC50 (central CCK-B receptor): 1880 nM

Cc1cccc(C(=O)N[C@H](CCC(=O)N[C@H](Cc2c[nH]c3ccccc23)C(=O)O)C(=O)N2CCC3(CCCC3)CC2)c1 [Compound 32]
IC50 (central CCK-B receptor): 3560 nM

O=C(O)CC[C@@H](NC(=O)CC[C@@H](NC(=O)c1cc(Cl)cc(Cl)c1)C(=O)N1CCC2(CCCC2)CC1)C(=O)NCCC12CC3CC(CC(C3)C1)C2 [Compound 40]
IC50 (central CCK-B receptor): > 30000 nM

CSCCC(NC(=O)CC[C@@H](NC(=O)c1cc(Cl)cc(Cl)c1)C(=O)N1CCC2(CCCC2)CC1)C(=O)O (stereo partly drawn) [Compound 7]
IC50 (central CCK-B receptor): 510 nM

O=C(O)CNC(=O)CC[C@@H](NC(=O)c1cc(Cl)cc(Cl)c1)C(=O)N1CCC2(CCCC2)CC1 [Compound 1]
IC50 (central CCK-B receptor): 1060 nM

CC(C)(C)CCNC(=O)[C@@H](CCC(=O)NC(Cc1ccccc1)C(=O)O)NC(=O)c1cccc(Cl)c1 (stereo partly drawn) [Compound 33]
IC50 (central CCK-B receptor): > 30000 nM

CC(NC(=O)CC[C@@H](NC(=O)c1cc(Cl)cc(Cl)c1)C(=O)N1CCC2(CCCC2)CC1)C(=O)O (stereo partly drawn) [Compound 5]
IC50 (central CCK-B receptor): 1320 nM

O=C(CC[C@@H](NC(=O)c1cc(Cl)cc(Cl)c1)C(=O)N1CCC2(CCCC2)CC1)N[C@@H](C(=O)O)c1ccccc1 [Compound 13]
IC50 (central CCK-B receptor): 420 nM

O=C(CC[C@@H](NC(=O)c1cc(Cl)cc(Cl)c1)C(=O)N1CCC2(CCCC2)CC1)N[C@H](Cc1cccnc1)C(=O)O [Compound 26]
IC50 (central CCK-B receptor): 250 nM

O=C(C[C@@H](NC(=O)c1cc(Cl)cc(Cl)c1)C(=O)N1CCC2(CCCC2)CC1)N[C@H](Cc1ccccc1)C(=O)O [Compound 44]
IC50 (central CCK-B receptor): 350 nM

O=C(O)Cc1ccc(NC(=O)CC[C@@H](NC(=O)c2cc(Cl)cc(Cl)c2)C(=O)N2CCC3(CCCC3)CC2)cc1 [Compound 57]
IC50 (central CCK-B receptor): 7730 nM

O=C(CC[C@@H](NC(=O)c1cc(Cl)cc(Cl)c1)C(=O)N1CCC2(CCCC2)CC1)NCc1ccc(C(=O)O)cc1 [Compound 56]
IC50 (central CCK-B receptor): 19500 nM

CN(C(=O)[C@@H](CCC(=O)O)NC(=O)CC[C@@H](NC(=O)c1cc(Cl)cc(Cl)c1)C(=O)N1CCC2(CCCC2)CC1)c1ccccc1 [Compound 37]
IC50 (central CCK-B receptor): 700 nM

O=C(C[C@@H](NC(=O)c1cc(Cl)cc(Cl)c1)C(=O)N1CCC2(CCCC2)CC1)Nc1ccccc1C(=O)O [Compound 55]
IC50 (central CCK-B receptor): > 30000 nM

O=C(CC[C@@H](NC(=O)c1cccc(Cl)c1)C(=O)NCCC12CC3CC(CC(C3)C1)C2)N[C@H](Cc1c[nH]c2ccccc12)C(=O)O [Compound 31]
IC50 (central CCK-B receptor): 13900 nM

O=C(O)CC[C@@H](NC(=O)CC[C@@H](NC(=O)c1cc(Cl)cc(Cl)c1)C(=O)N1CCC2(CCCC2)CC1)C(=O)N1CCC2(CCCC2)CC1 [Compound 36]
IC50 (central CCK-B receptor): 1700 nM

O=C(O)CC[C@@H](NC(=O)CC[C@@H](NC(=O)c1cc(Cl)cc(Cl)c1)C(=O)N1CCC2(CCCC2)CC1)C(=O)Nc1ccc2ccccc2c1 [Compound 39]
IC50 (central CCK-B receptor): 700 nM

O=C(O)CCNC(=O)CC[C@@H](NC(=O)c1cc(Cl)cc(Cl)c1)C(=O)N1CCC2(CCCC2)CC1 [Compound 3]
IC50 (central CCK-B receptor): 730 nM

CC(Cc1ccccc1)(NC(=O)CC[C@@H](NC(=O)c1cc(Cl)cc(Cl)c1)C(=O)N1CCC2(CCCC2)CC1)C(=O)O (stereo partly drawn) [Compound 45]
IC50 (central CCK-B receptor): 580 nM

O=C(CC[C@@H](NC(=O)c1ccccc1)C(=O)N1CCC2(CCCC2)CC1)Nc1ccc(C(=O)O)cc1 [Compound 54]
IC50 (central CCK-B receptor): 9210 nM

O=C(CC[C@@H](NC(=O)c1cc(Cl)cc(Cl)c1)C(=O)N1CCC2(CCCC2)CC1)NC(Cc1ccc(Cl)cc1)C(=O)O (stereo partly drawn) [Compound 17]
IC50 (central CCK-B receptor): 680 nM

O=C(CC[C@H](NC(=O)c1cc(Cl)cc(Cl)c1)C(=O)N1CCC2(CCCC2)CC1)N[C@H](Cc1ccccc1)C(=O)O [Compound S-9, reference compound]
times less active than its R diastereoisomer, compound 9 (centre *) (central CCK-B receptor; binding, guinea-pig cortex): about 250 times | IC50 (central CCK-B receptor): 38600 nM | CCK-B-antagonistic activity in vitro, result in words (central CCK-B receptor; see Table 3): weak CCK-B-antagonistic activity | EFF. % VS CONTROL (LIGHT TIME TOTAL TIME) (mouse; 1.0 mg/kg IP): 3% | EFF. % VS CONTROL (LIGHT-DARK MOVEMENTS) (mouse; 1.0 mg/kg IP): 6% | EFF. % VS CONTROL (MOV. DARK % TOTAL MOV.) (mouse; 1.0 mg/kg IP): -5% | LIGHT TIME TOTAL TIME (mouse; 1.0 mg/kg IP): 28.5% | LIGHT-DARK MOVEMENTS (mouse; 1.0 mg/kg IP): 18.2 | MOV. DARK % TOTAL MOV. (mouse; 1.0 mg/kg IP): 57% | TOTAL MOVEMENTS (mouse; 1.0 mg/kg IP): 528 | EFF. % VS CONTROL (LIGHT TIME TOTAL TIME) (mouse; 10.0 mg/kg IP): 0% | EFF. % VS CONTROL (LIGHT-DARK MOVEMENTS) (mouse; 10.0 mg/kg IP): 0% | EFF. % VS CONTROL (MOV. DARK % TOTAL MOV.) (mouse; 10.0 mg/kg IP): +3% | LIGHT TIME TOTAL TIME (mouse; 10.0 mg/kg IP): 24.9% | LIGHT-DARK MOVEMENTS (mouse; 10.0 mg/kg IP): 14.4 | MOV. DARK % TOTAL MOV. (mouse; 10.0 mg/kg IP): 62% | TOTAL MOVEMENTS (mouse; 10.0 mg/kg IP): 495 | anxiolytic activity, result in words (mouse): completely inactive

O=C(O)CCCNC(=O)CC[C@@H](NC(=O)c1cc(Cl)cc(Cl)c1)C(=O)N1CCC2(CCCC2)CC1 [Compound 4]
IC50 (central CCK-B receptor): 1250 nM

O=C(O)CC[C@@H](NC(=O)CC[C@@H](NC(=O)c1cc(Cl)cc(Cl)c1)C(=O)N1CCC2(CCCC2)CC1)C(=O)NCCc1ccccc1 [Compound 41]
IC50 (central CCK-B receptor): 790 nM
